Values joined by “and” are separate entries in the source; they are usually repeats but may differ in a detail not shown here. Identical values can stand only once. Inconclusive results and toxic doses are left out. No stated cut-off is given here; in the data, active means T/C of 150% or more; inactive means T/C below 125%.
Test system: L1210 leukemia ip in BDF1 mice, survival T/C
Assay: NCI In Vivo Anticancer Drug Screen. Data for tumor model L1210 Leukemia (intraperitoneal) in B6D2F1 (BDF1) mice
Conditions: endpoint: mean survival time, higher = longer survival
In short: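 Read-out is survival time, reported as the treated-group measurement over the vehicle-control measurement.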

[1] = dose: 100.0 mg/kg/injection, schedule: Q01DX001 (ip), vehicle: saline
[2] = dose: 200.0 mg/kg/injection, schedule: Q01DX001 (ip), vehicle: saline
[3] = dose: 50.0 mg/kg/injection, schedule: Q01DX009 (ip), vehicle: Klucel (hydroxypropylcellulose) (HPC)
[4] = dose: 100.0 mg/kg/injection, schedule: Q01DX009 (ip), vehicle: Klucel (hydroxypropylcellulose) (HPC)
[5] = dose: 100.0 mg/kg/injection, schedule: Q04DX003 (ip), vehicle: Klucel (hydroxypropylcellulose) (HPC)
[6] = dose: 200.0 mg/kg/injection, schedule: Q01DX009 (ip), vehicle: Klucel (hydroxypropylcellulose) (HPC)
[7] = dose: 200.0 mg/kg/injection, schedule: Q04DX003 (ip), vehicle: Klucel (hydroxypropylcellulose) (HPC)
[8] = dose: 400.0 mg/kg/injection, schedule: Q04DX003 (ip), vehicle: Klucel (hydroxypropylcellulose) (HPC)
[9] = dose: 100.0 mg/kg/injection, schedule: Q01DX009 (ip), vehicle: saline with Tween-80
[10] = dose: 200.0 mg/kg/injection, schedule: Q01DX009 (ip), vehicle: saline with Tween-80
[11] = dose: 400.0 mg/kg/injection, schedule: Q01DX009 (ip), vehicle: saline with Tween-80
[12] = dose: 100.0 mg/kg/injection, schedule: Q01DX009 (ip), vehicle: saline
[13] = dose: 100.0 mg/kg/injection, schedule: Q04DX003 (ip), vehicle: saline
[14] = dose: 200.0 mg/kg/injection, schedule: Q01DX009 (ip), vehicle: saline
[15] = dose: 200.0 mg/kg/injection, schedule: Q04DX003 (ip), vehicle: saline
[16] = dose: 400.0 mg/kg/injection, schedule: Q01DX009 (ip), vehicle: saline
[17] = dose: 400.0 mg/kg/injection, schedule: Q04DX003 (ip), vehicle: saline
[18] = dose: 400.0 mg/kg/injection, schedule: Q01DX001 (ip), vehicle: saline
[19] = dose: 100.0 mg/kg/injection, schedule: Q04DX003 (ip), vehicle: saline with Tween-80

Measured: T/C

CCOc1ccc(NC(=O)OCCN2CCN(CCc3ccccc3)C(C)C2)cc1 (stereo unspecified)
inactive: [1] 98 % of control | [2] 95 % of control

COC(=O)/C=C/c1ccc(OC)cc1
inactive: [3] 103 % of control | [4] 102 % of control | [5] 96 % of control | [6] 103 % of control | [7] 100 % of control | [8] 88 % of control

CS(=O)(=O)N(CC(=O)O)Cc1cccnc1
inactive: dose: 100.0 mg/kg/injection, schedule: Q01DX009 (ip), vehicle: other 101 % of control | dose: 100.0 mg/kg/injection, schedule: Q04DX003 (ip), vehicle: other 106 % of control | dose: 200.0 mg/kg/injection, schedule: Q01DX009 (ip), vehicle: other 101 % of control | dose: 200.0 mg/kg/injection, schedule: Q04DX003 (ip), vehicle: other 93 % of control | dose: 400.0 mg/kg/injection, schedule: Q01DX009 (ip), vehicle: other 105 % of control | dose: 400.0 mg/kg/injection, schedule: Q04DX003 (ip), vehicle: other 95 % of control

Cn1ncc2c1C1(C)CCC2C1(C)C (stereo unspecified)
inactive: [3] 89 % of control | [5] 102 % of control | [6] 92 % of control | [7] 107 % of control

CC1(C)CCCC(OC(=O)c2ccc([N+](=O)[O-])cc2)C1 (stereo unspecified)
inactive: dose: 100.0 mg/kg/injection, schedule: Q01DX001 (ip), vehicle: carboxymethylcellulose (CMC) 93 % of control | dose: 200.0 mg/kg/injection, schedule: Q01DX001 (ip), vehicle: carboxymethylcellulose (CMC) 96 % of control | dose: 400.0 mg/kg/injection, schedule: Q01DX001 (ip), vehicle: carboxymethylcellulose (CMC) 102 % of control

c1ccc(NC2CCCCC2)nc1
inactive: dose: 100.0 mg/kg/injection, schedule: Q04DX003 (ip), vehicle: gum acacia 95 % of control | dose: 200.0 mg/kg/injection, schedule: Q04DX003 (ip), vehicle: gum acacia 98 % of control | dose: 400.0 mg/kg/injection, schedule: Q04DX003 (ip), vehicle: gum acacia 96 % of control

O=C1/C(=C/c2ccccc2[N+](=O)[O-])Cc2ccccc21
inactive: [3] 107 % of control | [4] 94 % of control | [6] 93 % of control

Cc1cc(=O)cc(C)o1
inactive: [9] 108 % of control | [10] 100 % of control | [11] 102 % of control

O/N=c1/cc(-c2ccc(Cl)cc2)ss1
inactive: [12] 91 % of control | [13] 93 % of control | [14] 89 % of control | [15] 95 % of control | [16] 96 % of control | [17] 97 % of control

CCCCN(CCCC)C(=O)CCC
inactive: [13] 102 % of control | [15] 95 % of control

CCOC(=O)CNCc1ccc(F)cc1
inactive: [12] 105 % of control | [13] 104 % of control | [14] 103 % of control | [15] 110 % of control | [16] 88 % of control | [17] 100 % of control

CCOC(=O)NC1CCC1NC(=O)OCC (stereo unspecified)
inactive: [9] 95 % of control | [10] 98 % of control | [11] 91 % of control

CCC(O)C1CCCO1 (stereo unspecified)
inactive: dose: 25.0 mg/kg/injection, schedule: Q04DX002 (ip), vehicle: saline 103 % of control | dose: 50.0 mg/kg/injection, schedule: Q04DX002 (ip), vehicle: saline 92 % of control | [1] 104 % of control | dose: 100.0 mg/kg/injection, schedule: Q04DX002 (ip), vehicle: saline 103 % of control | [2] 95 % of control | [18] 93 % of control

O=C(Sc1c[nH]c(=O)[nH]c1=O)c1ccc(N(CCCl)CCCl)cc1
inactive: dose: 25.0 mg/kg/injection, schedule: Q04DX003 (ip), vehicle: Klucel (hydroxypropylcellulose) (HPC) 96 % of control | dose: 50.0 mg/kg/injection, schedule: Q04DX003 (ip), vehicle: Klucel (hydroxypropylcellulose) (HPC) 102 % of control | [5] 94 % of control | [7] 100 % of control | [8] 105 % of control

CC(N)c1ccccc1 (stereo unspecified)
inactive: dose: 100.0 mg/kg/injection, schedule: Q01DX001 (ip), vehicle: saline with Tween-80 95 % of control | dose: 200.0 mg/kg/injection, schedule: Q01DX001 (ip), vehicle: saline with Tween-80 90 % of control

CC(=O)Nc1cc2c(cc1Br)-c1ccc(F)cc1C2
inactive: dose: 200.0 mg/kg/injection, schedule: Q01DX Z (ip), vehicle: saline 98 % of control | dose: 400.0 mg/kg/injection, schedule: Q01DX Z (ip), vehicle: saline 102 % of control | dose: 800.0 mg/kg/injection, schedule: Q01DX Z (ip), vehicle: saline 110 % of control

CCCOS(C)(=O)=O
inactive: [1] 100 % of control | [2] 100 % of control | [18] 100 % of control

COc1cc(CNCc2cc(OC)c(OC)c(OC)c2)cc(OC)c1OC
inactive: dose: 50.0 mg/kg/injection, schedule: Q01DX001 (ip), vehicle: saline 102 % of control | [1] 102 % of control

Cc1c2cnccc2c(C)c2c1[nH]c1ccccc12
inactive: dose: 25.0 mg/kg/injection, schedule: Q01DX Z (ip), vehicle: saline 104 % of control | dose: 50.0 mg/kg/injection, schedule: Q01DX Z (ip), vehicle: saline 102 % of control | dose: 75.0 mg/kg/injection, schedule: Q01DX Z (ip), vehicle: saline 100 % of control | [1] 97 % of control | dose: 100.0 mg/kg/injection, schedule: Q01DX Z (ip), vehicle: saline 102 % of control and 92 % of control | dose: 150.0 mg/kg/injection, schedule: Q01DX Z (ip), vehicle: saline 90 % of control | [2] 100 % of control | dose: 225.0 mg/kg/injection, schedule: Q01DX Z (ip), vehicle: saline 93 % of control | dose: 335.0 mg/kg/injection, schedule: Q01DX Z (ip), vehicle: saline 97 % of control and 98 % of control | [18] 100 % of control | dose: 500.0 mg/kg/injection, schedule: Q01DX Z (ip), vehicle: saline 113 % of control

CC1(c2ccc(Cl)cc2)NC(=O)N(CC(N)=O)C1=O (stereo unspecified)
inactive: [19] 105 % of control | dose: 400.0 mg/kg/injection, schedule: Q04DX003 (ip), vehicle: saline with Tween-80 122 % of control

NOCc1ccc(CON)cc1
inactive: [13] 95 % of control | [15] 97 % of control

CCOC(=O)CNc1ccc(C)c(C)c1
inactive: dose: 100.0 mg/kg/injection, schedule: Q04DX002 (ip), vehicle: Klucel (hydroxypropylcellulose) (HPC) 95 % of control | dose: 200.0 mg/kg/injection, schedule: Q04DX002 (ip), vehicle: Klucel (hydroxypropylcellulose) (HPC) 109 % of control | dose: 400.0 mg/kg/injection, schedule: Q04DX002 (ip), vehicle: Klucel (hydroxypropylcellulose) (HPC) 104 % of control

C/C=C(/C#N)c1ccccc1
inactive: dose: 50.0 mg/kg/injection, schedule: Q01DX009 (ip), vehicle: saline with Tween-80 107 % of control | [9] 106 % of control | [19] 90 % of control | [10] 100 % of control | dose: 200.0 mg/kg/injection, schedule: Q04DX003 (ip), vehicle: saline with Tween-80 96 % of control

— PubChem BioAssay AID248 (DTP/NCI, 2004)
